The text below walks through data of article PMC11348465, “Pharmacochemical Study of Multitarget Amino Acids’ Hybrids: Design, Synthesis, In vitro, and In silico Studies” (Medicinal Chemistry (Shariqah (United Arab Emirates), 2024).

Where two headings read alike, the source gives them in different places.

The test system of one test is albumin. The test can be described thus: Albumin denaturation studies. The protocol: The synthesized compounds were evaluated for the inhibition of albumin denaturation. Test tubes containing 1 mL of albumin solution (1% w/v in phosphate buffer pH=7.4), buffer, and 20 μL of the tested compounds dissolved in DMSO are incubated at 37°C for 15 minutes (final concentration 100 µM). The incubation follows at 60°C for another 15 minutes to induce albumin denaturation. The samples are cooled to room temperature. Their absorbance was measured at 660 nm. DMSO was used as a blank solution and acetylsalicylic acid as a reference compound. The results are given in Table S1 in the supplementary material.
Protein denaturation has correlated well with the inflammatory response, leading to various inflammatory diseases. It is known that tissue injury during life might refer to the denaturation of cells' protein constituents or intercellular substances. […] Many anti-inflammatory drugs can inhibit the heat-coagulation of serum albumin [78]. Thus, the inhibition of albumin heat-coagulation activity of the designed molecules was examined in vitro [60] as a measure of their anti-inflammatory activity. The experimental results were compared to the standard drug, acetylsalicylic acid. […] The results are given in Table S1 in the supplementary material.

The conditions of test [1]: cited from earlier work.
The next test has as its target T1, ovine COX-2 (Ovis aries, UniProt P79208).
T1 construct: purchased Cayman (USA)
T1 sequence (P79208 17-603): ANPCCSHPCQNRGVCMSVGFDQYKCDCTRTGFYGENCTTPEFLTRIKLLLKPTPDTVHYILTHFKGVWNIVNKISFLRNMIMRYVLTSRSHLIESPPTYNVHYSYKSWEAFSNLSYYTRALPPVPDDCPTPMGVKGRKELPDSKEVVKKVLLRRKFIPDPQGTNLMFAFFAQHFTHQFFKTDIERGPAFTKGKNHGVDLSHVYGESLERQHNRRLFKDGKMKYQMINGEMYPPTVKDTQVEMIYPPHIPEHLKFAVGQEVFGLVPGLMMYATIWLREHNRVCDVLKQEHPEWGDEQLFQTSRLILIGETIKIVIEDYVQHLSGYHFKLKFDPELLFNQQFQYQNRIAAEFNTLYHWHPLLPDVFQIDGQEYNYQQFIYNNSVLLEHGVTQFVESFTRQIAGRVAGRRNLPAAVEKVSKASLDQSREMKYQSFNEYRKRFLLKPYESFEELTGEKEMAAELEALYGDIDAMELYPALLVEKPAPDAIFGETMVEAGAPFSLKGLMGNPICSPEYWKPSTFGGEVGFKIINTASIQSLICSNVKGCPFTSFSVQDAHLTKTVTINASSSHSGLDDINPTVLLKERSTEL
Description: Cyclooxygenase-2 inhibition study. It counts as biochemical. The protocol:
The in vitro study of cyclooxygenase (COX) activity was determined by using arachidonic acid (AA) as the substrate and N,N,N’,N’-tetramethylphenylenediamine (TMPD) as the co-substrate. […] The absorption due to the spontaneous oxidation of TMPD was subtracted from the initial rate of oxidation observed in the presence of AA. […] A blank determination was used first to serve as a negative control. Indomethacin was used as a reference COX-2 inhibitor (positive control).
The role of COX-2 in neurodegenerative diseases has been reported, and COX-2 inhibition is considered of high importance as a therapeutic tool. The designed derivatives were tested for their COX-2 inhibition activity on the ovine COX-2 enzyme. […] Indomethacin was used as a reference compound.

The target in test [2] is T2, soybean lipoxygenase (LOX-1) (Glycine max, UniProt P08170).
T2 construct: purchased Sigma Chemical, Co. (St Louis, MO, USA)
T2 sequence (P08170 1-839): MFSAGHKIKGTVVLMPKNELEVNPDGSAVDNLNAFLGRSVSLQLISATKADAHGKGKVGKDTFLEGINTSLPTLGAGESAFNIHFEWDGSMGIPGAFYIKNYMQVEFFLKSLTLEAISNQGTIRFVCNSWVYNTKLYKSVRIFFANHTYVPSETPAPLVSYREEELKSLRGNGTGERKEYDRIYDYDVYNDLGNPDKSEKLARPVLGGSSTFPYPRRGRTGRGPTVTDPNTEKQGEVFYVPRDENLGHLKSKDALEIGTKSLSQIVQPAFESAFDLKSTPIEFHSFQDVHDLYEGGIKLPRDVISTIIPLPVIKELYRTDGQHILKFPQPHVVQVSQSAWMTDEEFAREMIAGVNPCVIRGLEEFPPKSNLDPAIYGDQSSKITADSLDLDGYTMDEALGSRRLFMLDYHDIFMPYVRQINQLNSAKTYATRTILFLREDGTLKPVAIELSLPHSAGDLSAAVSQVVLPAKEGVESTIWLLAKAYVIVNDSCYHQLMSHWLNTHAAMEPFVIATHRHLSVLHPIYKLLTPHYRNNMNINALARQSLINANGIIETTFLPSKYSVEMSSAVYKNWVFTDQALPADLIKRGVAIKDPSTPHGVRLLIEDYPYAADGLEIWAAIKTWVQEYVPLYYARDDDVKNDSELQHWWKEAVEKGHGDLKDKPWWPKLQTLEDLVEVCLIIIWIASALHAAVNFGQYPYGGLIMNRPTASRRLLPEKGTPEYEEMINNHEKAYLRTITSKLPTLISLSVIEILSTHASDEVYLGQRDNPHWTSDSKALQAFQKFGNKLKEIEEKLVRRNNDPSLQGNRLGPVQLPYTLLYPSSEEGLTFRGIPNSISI
To be noted: % inhibition at 100 µM; cited from earlier work.

In test [3] the target is T2, soybean lipoxygenase (LOX-1). The test can be described thus: Soybean lipoxygenase inhibition study. The test is classed as biochemical. The protocol: Our group evaluated an in vitro study as reported previously. The tested hybrids were incubated at room temperature with sodium linoleate (100 µM) and 200 µL of enzyme solution (1/9 X 10^-4 w/v in saline). […] Different concentrations were used for the determination of IC50. A blank determination was used as a negative control.
Due to the limited work on sufficiently purified human ALOX-5 isoenzyme, most of the published research was performed on the soybean homolog. […] This study used the soybean isoenzyme LOX-1, which exerts maximal activity at pH 9.0 [72].

Test [4] in a line: Inhibition of linoleic acid peroxidation (AAPH-induced). The protocol: Our group evaluated the in vitro study as reported previously. Ten 16 mM sodium linoleate solution microliters were added to the UV cuvette containing 93 µL of a 0.05 M phosphate buffer, pH 7.4, and 10 µL of the tested compounds (final concentration 100 µM). The oxidation reaction started at 37 °C under air by adding 50 µL of the free radical initiator AAPH (40 mM). Oxidation was carried out and monitored at 234 nm. DMSO under the same conditions was used as a negative control. Trolox was used as the appropriate standard (positive control). The results are given in Table S1 in the supplementary material.
We used the water-soluble 2, 2’-azobis(2-amidinopropane) hydrochloride (AAPH) to generate in vitro peroxyl radicals through spontaneous thermal decomposition, which resembles cellular lipid peroxidation due to the activity of the undertaken radicals. The anti-lipid peroxidation activities were compared to a well-known antioxidant, i.e., Trolox (Table S1 in the supplementary material). […] In general, the anti-lipid peroxidation ranged from 8-99%. Except for acids 11, 12, 17, 19, 21, 22, 24, 25, and 28, which present high antioxidant activities (on the high % level), the other cinnamic acids present low or medium activity.

As to `CC(=O)Oc1ccccc1C(=O)O` [Aspirin, acetylsalicylic acid, reference compound], the “Albumin denaturation (%, at 100 µM)” value in the test on albumin worked out at 31.2%.

Usually inhibition stands for the change of the read-out against control, counted positive when it falls. Regarding `O=C(O)/C=C/C=C/c1ccccc1` [Compound 23], in test [1], the “AAPH inhibition (%, at 100 µM)” value was 30%. At ovine COX-2, this compound gave an inhibition at 100 µM of 9%. Besides, in test [2], the “LOX inhibition (%)” value is reported as 24%.

The term IC50 denotes the concentration that gives 50% inhibition. Turning to `N#Cc1ccc(/C=C/C(=O)O)cc1` [Compound 26], the “AAPH inhibition (%, at 100 µM)” value in test [1] was 20%. This compound also came in with an IC50 on ovine COX-2 of 65 µM. Moreover, the inhibition at 100 µM in test [3] (read-out: LOX inhibition (%)) was determined as 27%.

For the compound `COC(=O)CCCNC(=O)/C=C/c1ccc(O)c(O)c1` [Compound 28b], the “AAPH inhibition (%, at 100 µM)” value in test [4] is 58%. Besides, the IC50 on ovine COX-2 (read-out: COX-2 inhibition (IC50)) stood at 100 µM. Moreover, the “Albumin denaturation (%, at 100 µM)” value in the test with albumin is on record as 44%.

`COC(=O)CCC(NC(=O)C=Cc1ccc(O)c(O)c1)C(=O)OC` (stereo not shown) [Compound 28c]: the “AAPH inhibition (%, at 100 µM)” value in test [4] amounted to 87%. Further, at 100 µM the inhibition at ovine COX-2 was 19%. Further, the “Albumin denaturation (%, at 100 µM)” value in the test on albumin was found to be 31%. Also, the IC50 in test [3] (read-out: LOX inhibition (IC50)) is 8.5 µM.

In the case of `CCOC(=O)CNC(=O)/C=C/c1ccc2c(c1)OC(C)(C)O2` [Compound 29a], the “AAPH inhibition (%, at 100 µM)” value in test [4] amounted to 80%. Further, the “COX-2 inhibition (%)” value at ovine COX-2 (% inhibition at 100 µM) is 38%. Besides, the “Albumin denaturation (%, at 100 µM)” value in the test on albumin is recorded as 25%.

As for `COC(=O)CC[C@H](NC(=O)/C=C/c1ccc2c(c1)OC(C)(C)O2)C(=O)OC` [Compound 29c], in test [4], the “AAPH inhibition (%, at 100 µM)” value is 27%. Besides, the “Albumin denaturation (%, at 100 µM)” value with albumin is recorded as 75%.
